Results as given in patent US20260158102A1, “CYCLIC PEPTIDE DERIVATIVE COMPOSITION FOR TREATING OR PREVENTING NEUROPATHIC PAIN AND/OR INFLAMMATORY PAIN” (DKS Co. Ltd., priority 2022, published 2026).

Assay: Observation of general condition in rat STZ-induced diabetes model
Type: in vivo
Conditions: number of animals, 10 per group
Procedure: Compound 9 (50 mg/mL) was diluted with water for injection to obtain a 1 mg/mL administration specimen. For the specimens to be administered at 0.1 mg/mL and 0.01 mg/mL, the specimen to be administered at 1 mg/mL was diluted stepwise with water for injection. Each administration specimen was divided into PP disposable tubes every day and stored in a storehouse (freezer: MDF-MU339H-PJ, PHC Corporation) under the condition of freezing (−30° C. to −20° C., measured value: −26.4 to −24.5° C.). Preparation was performed on the day before the start of administration.
Water for injection was added to and dissolved in Pregabalin taken out from the capsule to obtain 2 mg/mL. It was prepared before use.
• Animal species: rat (SPF) • Strain: Crl: CD (SD) • Date of animal acquisition, gender, age in weeks, number of animals acquired, and weight range after 1 day of acquisition • First and second courses: Apr. 6, 2022, male, 7 weeks old, 35 animals, 217 to 237 g • Third and fourth courses: Apr. 13, 2022, male, 7 weeks old, 35 animals, 216 to 235 g • Source: […].
• Dose volume: calculated at 2 mL/kg based on the body weight on the day of administration. • Number of times of administration: once • Day of administration: 7 days before the day of starting administration of the test substance.
• Dose volume: calculated at 1 mL/kg based on the body weight on the day of administration. • Number of times of administration: 9 times • Interval of administration: once every 3 days (evaluation was performed on the day after administration) • Day of starting administration: day 8 of STZ administration (day of STZ administration is counted as day 1).
• Dose volume: calculated at 10 mL/kg based on the body weight on the day of administration. • Number of times of administration: Administration was performed once on the day of evaluation of neuropathic pain, twice in total, and on the other days of administration, a vehicle for a control substance (water for injection) was orally administered.
• Observation of general condition • Observation was performed once a day.

Measured: general condition

CC[C@@]1(C)Oc2cc(ccc2O)C[C@H](NC)C(=O)N[C@@H](C(C)C)C(=O)N[C@@H]1C(=O)N[C@@H](CC(=O)O)C(=O)O [Compound 9]
10: 0.01 mg/kg iv, day 1 of STZ administration | 0.01 mg/kg iv, day 2 of STZ administration | 0.01 mg/kg iv, day 3 of STZ administration | 0.01 mg/kg iv, day 4 of STZ administration | 0.01 mg/kg iv, day 5 of STZ administration | 0.01 mg/kg iv, day 6 of STZ administration | 0.01 mg/kg iv, day 7 of STZ administration | 0.01 mg/kg iv, day 8 of STZ administration | 0.01 mg/kg iv, day 9 of STZ administration | 0.01 mg/kg iv, day 10 of STZ administration | 0.01 mg/kg iv, day 11 of STZ administration | 0.01 mg/kg iv, day 12 of STZ administration | 0.01 mg/kg iv, day 13 of STZ administration | 0.01 mg/kg iv, day 14 of STZ administration | 0.01 mg/kg iv, day 15 of STZ administration | 0.01 mg/kg iv, day 16 of STZ administration | 0.01 mg/kg iv, day 17 of STZ administration | 0.01 mg/kg iv, day 18 of STZ administration | 0.01 mg/kg iv, day 19 of STZ administration | 0.01 mg/kg iv, day 20 of STZ administration | 0.01 mg/kg iv, day 21 of STZ administration | 0.01 mg/kg iv, day 22 of STZ administration | 0.01 mg/kg iv, day 23 of STZ administration | 0.01 mg/kg iv, day 24 of STZ administration | 0.01 mg/kg iv, day 25 of STZ administration | 0.01 mg/kg iv, day 26 of STZ administration | 0.01 mg/kg iv, day 27 of STZ administration | 0.01 mg/kg iv, day 28 of STZ administration | 0.01 mg/kg iv, day 29 of STZ administration | 0.01 mg/kg iv, day 30 of STZ administration | 0.01 mg/kg iv, day 31 of STZ administration | 0.01 mg/kg iv, day 32 of STZ administration | 0.01 mg/kg iv, day 33 of STZ administration | 0.01 mg/kg iv, day 34 of STZ administration | 0.01 mg/kg iv, day 35 of STZ administration | 0.1 mg/kg iv, day 1 of STZ administration | 0.1 mg/kg iv, day 2 of STZ administration | 0.1 mg/kg iv, day 3 of STZ administration | 0.1 mg/kg iv, day 4 of STZ administration | 0.1 mg/kg iv, day 5 of STZ administration | 0.1 mg/kg iv, day 6 of STZ administration | 0.1 mg/kg iv, day 7 of STZ administration | 0.1 mg/kg iv, day 8 of STZ administration | 0.1 mg/kg iv, day 9 of STZ administration | 0.1 mg/kg iv, day 10 of STZ administration | 0.1 mg/kg iv, day 11 of STZ administration | 0.1 mg/kg iv, day 12 of STZ administration | 0.1 mg/kg iv, day 13 of STZ administration | 0.1 mg/kg iv, day 14 of STZ administration | 0.1 mg/kg iv, day 15 of STZ administration | 0.1 mg/kg iv, day 16 of STZ administration | 0.1 mg/kg iv, day 17 of STZ administration | 0.1 mg/kg iv, day 18 of STZ administration | 0.1 mg/kg iv, day 19 of STZ administration | 0.1 mg/kg iv, day 20 of STZ administration | 0.1 mg/kg iv, day 21 of STZ administration | 0.1 mg/kg iv, day 22 of STZ administration | 0.1 mg/kg iv, day 23 of STZ administration | 0.1 mg/kg iv, day 24 of STZ administration | 0.1 mg/kg iv, day 25 of STZ administration | 0.1 mg/kg iv, day 26 of STZ administration | 0.1 mg/kg iv, day 27 of STZ administration | 0.1 mg/kg iv, day 28 of STZ administration | 0.1 mg/kg iv, day 29 of STZ administration | 0.1 mg/kg iv, day 30 of STZ administration | 0.1 mg/kg iv, day 31 of STZ administration | 0.1 mg/kg iv, day 32 of STZ administration | 0.1 mg/kg iv, day 33 of STZ administration | 0.1 mg/kg iv, day 34 of STZ administration | 0.1 mg/kg iv, day 35 of STZ administration | 1 mg/kg iv, day 1 of STZ administration | 1 mg/kg iv, day 2 of STZ administration | 1 mg/kg iv, day 3 of STZ administration | 1 mg/kg iv, day 4 of STZ administration | 1 mg/kg iv, day 5 of STZ administration | 1 mg/kg iv, day 6 of STZ administration | 1 mg/kg iv, day 7 of STZ administration | 1 mg/kg iv, day 8 of STZ administration | 1 mg/kg iv, day 9 of STZ administration | 1 mg/kg iv, day 10 of STZ administration | 1 mg/kg iv, day 11 of STZ administration | 1 mg/kg iv, day 12 of STZ administration | 1 mg/kg iv, day 13 of STZ administration | 1 mg/kg iv, day 14 of STZ administration | 1 mg/kg iv, day 15 of STZ administration | 1 mg/kg iv, day 16 of STZ administration | 1 mg/kg iv, day 17 of STZ administration | 1 mg/kg iv, day 18 of STZ administration | 1 mg/kg iv, day 19 of STZ administration | 1 mg/kg iv, day 20 of STZ administration | 1 mg/kg iv, day 21 of STZ administration | 1 mg/kg iv, day 22 of STZ administration | 1 mg/kg iv, day 28 of STZ administration | 1 mg/kg iv, day 29 of STZ administration | 1 mg/kg iv, day 30 of STZ administration | 1 mg/kg iv, day 31 of STZ administration | 1 mg/kg iv, day 32 of STZ administration | 1 mg/kg iv, day 33 of STZ administration | 1 mg/kg iv, day 34 of STZ administration | 1 mg/kg iv, day 35 of STZ administration
